In one data set the target is TACE enzyme (Homo sapiens, UniProt P78536). In words: Enzymatic test of TACE inhibition. Type of data set: biochemical.
The next data set deals with MMP1 (Homo sapiens (Human), UniProt P03956). In words: Selectivity test MMP1. The format is biochemical.
The next data set deals with ADAM10 (Homo sapiens (Human), UniProt O14672). In words: Selectivity test ADAM10. Type of data set: biochemical.
Another data set addresses MMP3 (Homo sapiens (Human), UniProt P08254). In words: Selectivity test MMP3. Type of data set: biochemical.

Chain of TACE enzyme (P78536 215-824 limits assumed): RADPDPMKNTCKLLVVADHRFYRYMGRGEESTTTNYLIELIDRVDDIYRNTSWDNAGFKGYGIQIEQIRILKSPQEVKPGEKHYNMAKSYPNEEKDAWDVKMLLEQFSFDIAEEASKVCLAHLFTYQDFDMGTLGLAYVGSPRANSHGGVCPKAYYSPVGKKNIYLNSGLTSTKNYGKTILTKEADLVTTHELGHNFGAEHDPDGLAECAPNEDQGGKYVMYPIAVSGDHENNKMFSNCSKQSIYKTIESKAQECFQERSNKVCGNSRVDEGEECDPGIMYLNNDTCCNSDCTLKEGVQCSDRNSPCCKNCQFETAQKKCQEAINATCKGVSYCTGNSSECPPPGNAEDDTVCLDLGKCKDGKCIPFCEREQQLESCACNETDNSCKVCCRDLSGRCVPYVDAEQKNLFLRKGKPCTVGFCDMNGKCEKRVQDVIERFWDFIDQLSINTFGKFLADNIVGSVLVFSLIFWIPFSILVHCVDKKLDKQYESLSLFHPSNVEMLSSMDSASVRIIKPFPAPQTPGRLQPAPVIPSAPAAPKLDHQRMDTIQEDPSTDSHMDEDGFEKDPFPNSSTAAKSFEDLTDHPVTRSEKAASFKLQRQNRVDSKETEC
Chain of ADAM10 (O14672 214-748, species assumed): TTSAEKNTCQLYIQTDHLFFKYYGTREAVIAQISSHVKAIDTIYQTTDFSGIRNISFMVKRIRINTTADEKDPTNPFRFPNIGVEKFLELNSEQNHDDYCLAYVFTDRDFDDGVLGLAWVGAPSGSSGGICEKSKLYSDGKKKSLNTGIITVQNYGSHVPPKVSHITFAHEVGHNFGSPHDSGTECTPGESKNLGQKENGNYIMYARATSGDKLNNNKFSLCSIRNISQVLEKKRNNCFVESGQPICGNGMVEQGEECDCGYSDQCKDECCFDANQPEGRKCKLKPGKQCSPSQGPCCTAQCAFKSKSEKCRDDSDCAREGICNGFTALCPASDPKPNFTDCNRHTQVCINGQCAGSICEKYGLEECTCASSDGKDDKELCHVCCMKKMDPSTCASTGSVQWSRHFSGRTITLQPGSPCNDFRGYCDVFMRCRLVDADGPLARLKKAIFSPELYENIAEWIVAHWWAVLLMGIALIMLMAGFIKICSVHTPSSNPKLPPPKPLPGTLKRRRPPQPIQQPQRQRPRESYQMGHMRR
Chain of MMP3 (P08254 100-477, species assumed): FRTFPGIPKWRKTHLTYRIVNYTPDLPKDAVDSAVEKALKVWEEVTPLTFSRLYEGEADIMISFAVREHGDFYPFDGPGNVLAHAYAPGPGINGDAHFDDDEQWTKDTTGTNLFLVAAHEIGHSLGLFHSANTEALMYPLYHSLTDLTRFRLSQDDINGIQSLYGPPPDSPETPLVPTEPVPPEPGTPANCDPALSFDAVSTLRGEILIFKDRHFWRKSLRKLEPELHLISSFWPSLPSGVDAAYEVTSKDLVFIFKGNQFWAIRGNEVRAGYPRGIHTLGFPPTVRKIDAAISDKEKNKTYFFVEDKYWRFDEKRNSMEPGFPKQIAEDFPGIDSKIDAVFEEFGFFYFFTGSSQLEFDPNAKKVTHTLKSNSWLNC
Chain of MMP1 (P03956 100-469, species assumed): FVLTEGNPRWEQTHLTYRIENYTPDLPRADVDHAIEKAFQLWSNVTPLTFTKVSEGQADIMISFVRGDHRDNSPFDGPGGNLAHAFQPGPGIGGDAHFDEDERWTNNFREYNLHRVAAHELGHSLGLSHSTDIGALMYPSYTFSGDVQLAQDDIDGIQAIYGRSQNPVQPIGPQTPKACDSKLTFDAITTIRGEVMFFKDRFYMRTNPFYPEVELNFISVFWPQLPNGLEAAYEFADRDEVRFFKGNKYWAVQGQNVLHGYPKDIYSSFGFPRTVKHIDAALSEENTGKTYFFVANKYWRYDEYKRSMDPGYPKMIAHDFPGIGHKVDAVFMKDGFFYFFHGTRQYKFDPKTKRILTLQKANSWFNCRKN
Procedure for ADAM10: (§1) The products are dissolved so as to obtain a concentration of 10 mM in DMSO.
The substrate is used at 40 μM.
(§2) The enzymes are purchased from Calbiochem.
Procedure for MMP1: as §1
The substrate is used at 40 μM.
as §2
Procedure for MMP3: as §1
The substrate is used at 40 μM.
as §2
Procedure for TACE enzyme: as §1
The substrate is used at 40 μM.

One may read the IC50 as the concentration that gives 50% inhibition. Take `CC#CCOc1ccc(C(=O)NC[C@@H](C(=O)NO)N2CCCCC2)cc1` [Example 1, 4-but-2-ynyloxy-N—((S)-2-hydroxycarbamoyl-2-piperidin-1-ylethyl)benzamide]: the “% TACE inhibition at 10 μM” value at TACE enzyme turned out to be 96%. The concentration for half-maximal inhibition (IC50) against TACE enzyme (fluorescent substrate 40 μM) worked out at 9 nM.
`Cc1cc(COc2ccc(C(=O)NC[C@@H](C(=O)NO)N3CCCCC3)cc2)c2ccccc2n1` [Example 2, N—((S)-2-hydroxycarbamoyl-2-piperidin-1-yl-ethyl)-4-(2-methylquinolin-4-ylmethoxy)benzamide]: the IC50 at MMP1 is 9950 nM; at TACE enzyme (fluorescent substrate 40 μM), 71 nM; at TACE enzyme (selectivity table) it was 71 nM; against ADAM10 it was 6400 nM. Moreover, at TACE enzyme, the “% TACE inhibition at 10 μM” value worked out at 100%.
In the case of `O=C(NC[C@@H](C(=O)NO)N1CCCCC1)c1ccc(OCc2cc(Cl)nc(Cl)c2)cc1` [Example 3, 4-(2,6-dichloropyridin-4-ylmethoxy)-N—((S)-2-hydroxycarbamoyl-2-piperidin-1-ylethyl)benzamide], the “% TACE inhibition at 10 μM” value at TACE enzyme is given as 97%. On TACE enzyme (fluorescent substrate 40 μM), this compound returned an IC50 of 255 nM.
In the case of `O=C(NC[C@@H](C(=O)NO)N1CCCCC1)c1ccc(OCc2ccnc(-c3ccccc3)c2)cc1` [Example 4, N—((S)-2-hydroxycarbamoyl-2-piperidin-1-yl-ethyl)-4-(2-phenylpyridin-4-ylmethoxy)benzamide], at TACE enzyme, the “% TACE inhibition at 10 μM” value is on record as 100%.
Consider `O=C(NC[C@@H](C(=O)NO)N1CCCCC1)c1ccc(OCc2ccncc2)cc1` [Example 5, N—((S)-2-hydroxycarbamoyl-2-piperidin-1-yl-ethyl)-4-(pyridin-4-ylmethoxy)benzamide], for which the IC50 was 6120 nM against MMP3, 108 nM at TACE enzyme (fluorescent substrate 40 μM), 108 nM at TACE enzyme (selectivity table) and 3090 nM on ADAM10. The “% TACE inhibition at 10 μM” value on TACE enzyme is 93%.
As to `Cc1ccc(COc2ccc(C(=O)NC[C@@H](C(=O)NO)N3CCCCC3)cc2)c2ccccc12` [Example 7, N—((S)-2-hydroxycarbamoyl-2-piperidin-1-yl-ethyl)-4-(4-methylnaphthalen-1-ylmethoxy)benzamide], the “% TACE inhibition at 10 μM” value on TACE enzyme amounted to 90%. The concentration for half-maximal inhibition (IC50) against TACE enzyme (fluorescent substrate 40 μM) was determined as 91 nM.
In general, melting point refers to the temperature, or range, at which the solid turns liquid. Regarding `O=C(NC[C@@H](C(=O)NO)N1CCCCC1)c1ccc(OCc2ccnc(Br)c2)cc1` [Example 8, 4-(2-bromopyridin-4-ylmethoxy)-N—((S)-2-hydroxycarbamoyl-2-piperidin-1-ylethyl)benzamide], the melting point is 150 °C. Moreover, the “% TACE inhibition at 10 μM” value on TACE enzyme was found to be 91%.
Turning to `O=C(NC[C@@H](C(=O)NO)N1CCOCC1)c1ccc(OCc2ccncc2)cc1` [Example 9, N—((S)-2-hydroxycarbamoyl-2-morpholin-4-ylethyl)-4-(pyridin-4-ylmethoxy)benzamide], on TACE enzyme, the “% TACE inhibition at 10 μM” value was 92%. Also, the concentration for half-maximal inhibition (IC50) against TACE enzyme (fluorescent substrate 40 μM) is 428 nM.
`O=C(NC[C@@H](C(=O)NO)N1CCOCC1)c1ccc(OCc2ccnc(-c3ccccc3C(F)(F)F)c2)cc1` [Example 10, N—((S)-2-hydroxycarbamoyl-2-morpholin-4-ylethyl)-4-[2-(2-trifluoromethylphenyl)pyridin-4-yl-methoxy]benzamide]: the “% TACE inhibition at 10 μM” value at TACE enzyme was found to be 90%. At TACE enzyme (fluorescent substrate 40 μM), the 50% inhibitory concentration (IC50) came out at 900 nM.
Take `CCN(CC)[C@@H](CNC(=O)c1ccc(OCc2cc(C)nc3ccccc23)cc1)C(=O)NO` [Example 11, N—((S)-2-diethylamino-2-hydroxycarbamoyl-ethyl)-4-(2-methylquinolin-4-ylmethoxy)benzamide]: at TACE enzyme, the “% TACE inhibition at 10 μM” value amounted to 91%. Also, the IC50 against TACE enzyme (fluorescent substrate 40 μM) and at TACE enzyme (selectivity table) was 232 nM throughout.

The values are drawn from patent US9266848B2, “4-alkoxy-N-(2-hydroxycarbamoyl-2-piperidinyl-ethyl)-benzamide compounds as selective TACE-inhibitors for the treatment of inflammatory diseases” (GALDERMA RESEARCH & DEVELOPMENT, priority 2009, dated 2016).
